Usually ΔTm stands for the shift of the melting midpoint relative to a reference. As usually defined, the pKa is the pH at which an ionisable group is half protonated. High values mean a weaker acid or stronger base, low ones a stronger acid or weaker base.

In series [1] the test system is Nucleic Acid. The note with it: Bos taurus.
Description: Increase of calf thymus DNA denaturation temperature (delta Tm)
Series [2] has as its system KB.
Description: Cytotoxicity in vitro against KB cell line
A short description of series [3]: physchem.
Description: Acid ionization constant is determined
Series [4] concerns Candida albicans. The experiment in a line: microbe, parasite or virus in culture.
Description: Tested for antimicrobial activity against Candida albicans (clinical isolate) at concentration of 0.01-5 uM/mL
Series [5] has as its system Micrococcus luteus. The experiment in a line: microbe, parasite or virus in culture.
Description: Tested for antimicrobial activity against Micrococcus luteus PCM 525 at concentration of 0.01-5 uM/mL
For series [6], the system named is Staphylococcus aureus. The experiment in a line: microbe, parasite or virus in culture.
Description: Tested for antimicrobial activity against Staphylococcus aureus PCM 458 at concentration of 0.01-5 uM/mL
The test system of series [7] is Trichophyton benhamiae. In words: microbe, parasite or virus in culture.
Description: Tested for antimicrobial activity against Trichophyton mentagrophytes (clinical isolate) at concentration of 0.01-5 uM/mL

≈ marks a conversion by molar mass, not a printed value.

On to `Cc1ccc2[nH]c3nc4ccccc4c(C)c3c2c1`, for which, in series [1], the ΔTm amounted to 0.9 °C. The ID50 in series [2] came out at 0.1 uM ml-1. This molecule displayed a pKa in series [3] of 5.8.

Regarding `Cc1ccc2nc3n(C)c4ccc(C)cc4c(C)c-3c2c1`, the ΔTm in series [1] stood at 19 °C. For the same molecule, the ID50 in series [2] amounted to 0.002 uM ml-1. Further, the pKa in series [3] was 7.68. Moreover, the MIC in series [4] was 15 µM (≈ 4.12 µg/mL); in series [5], 15 µM (≈ 4.12 µg/mL); in series [6], 30 µM (≈ 8.23 µg/mL); in series [7], 30 µM (≈ 8.23 µg/mL).

In the case of `c1ccc2[nH]c3nc4ccccc4c-3cc2c1`, the ΔTm in series [1] was 0.3 °C. Moreover, in series [2], the ID50 is 0.6 uM ml-1. In series [3], this molecule returned a pKa of 5.55.

Consider `Cc1cccc2c(C)c3c(nc12)[nH]c1ccccc13`, for which, in series [1], the ΔTm was 1.1 °C. The molecule further returned an ID50 in series [2] of 0.1 uM ml-1. In addition, the pKa in series [3] turned out to be 5.78.

As to `Cc1c2c3ccccc3nc-2[nH]c2ccccc12`, in series [1], the ΔTm was determined as 0.7 °C. For the same molecule, the ID50 in series [2] came to 0.2 uM ml-1. Moreover, the pKa in series [3] is 5.7.

Regarding `Cc1ccc2[nH]c3nc4ccccc4c-3c(C)c2c1`, in series [1], the ΔTm stood at 1.4 °C. This molecule also came in with an ID50 in series [2] of 0.1 uM ml-1. In addition, the pKa in series [3] stood at 5.73.

On to `Cc1ccc2nc3[nH]c4ccc(C)cc4c(C)c-3c2c1`, for which the ΔTm in series [1] was 1.6 °C. The ID50 in series [2] was found to be 0.1 uM ml-1. In series [3], this molecule yielded a pKa of 5.98.

On to `Cc1c2c3ccccc3nc-2n(C)c2c(C)cccc12`, for which, in series [1], the ΔTm came to 10.4 °C. The same molecule came in with an ID50 in series [2] of 0.009 uM ml-1. Besides, the pKa in series [3] is 7.62. Further, the MIC in series [4] was 120 µM (≈ 31.2 µg/mL); in series [5] it was 120 µM (≈ 31.2 µg/mL); in series [6] it was 250 µM (≈ 65.1 µg/mL); in series [7], 60 µM (≈ 15.6 µg/mL).

Regarding `Cc1c2c3ccccc3nc-2n(C)c2ccccc12`, the ΔTm in series [1] stood at 11 °C. In series [2], this molecule yielded an ID50 of 0.004 uM ml-1. The molecule also displayed a pKa in series [3] of 7.45. In addition, the MIC worked out at 30 µM (≈ 7.39 µg/mL) in series [4], 60 µM (≈ 14.8 µg/mL) in series [5], 120 µM (≈ 29.6 µg/mL) in series [6] and 60 µM (≈ 14.8 µg/mL) in series [7].

`Cn1c2nc3ccccc3c-2cc2ccccc21` [NEOCRYPTOLEPINE]: in series [1], the ΔTm was 5.2 °C. This molecule displayed an ID50 in series [2] of 0.006 uM ml-1. For the same molecule, the pKa in series [3] turned out to be 7.24. For the same molecule, the MIC amounted to 120 µM (≈ 27.9 µg/mL) in series [4], 250 µM (≈ 58.1 µg/mL) in series [5], 250 µM (≈ 58.1 µg/mL) in series [6] and 60 µM (≈ 13.9 µg/mL) in series [7].

With `Cc1c2ccncc2c(C)c2c1[nH]c1ccccc12` [ELLIPTECINE], the ΔTm in series [1] was determined as 9.8 °C. The molecule further showed an ID50 in series [2] of 0.07 uM ml-1. In series [3], this molecule had a pKa of 7.4.

As for `COc1cccc2c1C(=O)c1c(O)c3c(c(O)c1C2=O)C[C@@](O)(C(=O)CO)C[C@@H]3O[C@H]1C[C@H](N)[C@H](O)[C@H](C)O1`, the ΔTm in series [1] came to 13 °C.

Regarding `Cc1ccc2c(c1)c(C)c1c3ccccc3nc-1n2C`, the ΔTm in series [1] is 13.3 °C. For the same molecule, the ID50 in series [2] was 0.003 uM ml-1. In series [3], the pKa came to 7.6. Moreover, the MIC is 15 µM (≈ 3.91 µg/mL) in series [4], 30 µM (≈ 7.81 µg/mL) in series [5], 60 µM (≈ 15.6 µg/mL) in series [6] and 30 µM (≈ 7.81 µg/mL) in series [7].

For the origin of these results see ChEMBL document CHEMBL1127370, “Synthesis and structure-activity relationship of methyl-substituted indolo[2,3-b]quinolines: novel cytotoxic, DNA topoisomerase II inhibitors” (J Med Chem, 1994).
